9 compounds from article PMC10999543, “Identification of kinase modulators as host-directed therapeutics against intracellular methicillin-resistant Staphylococcus aureus” (Frontiers in Cellular and Infection Microbiology, 2024) can be followed below.

The subject of data set [1] is HeLa cells. Put plainly: Compound screen by flow cytometry: HeLa cell count as surrogate readout of cell viability (z-scoreHeLa). Format: cell-based, human. The following applies: for z-scoreHeLa mean: mean of 3 replicates; for z-scoreHeLa rep 1 / cell count rep 1: replicate 1; for z-scoreHeLa rep 2 / cell count rep 2: replicate 2; for z-scoreHeLa rep 3 / cell count rep 3: replicate 3. Summed up: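 The viability surrogate was the count of fixed HeLa cells by flow cytometry, converted to z-scores against DMSO controls with values deviating two-fold excluded. Before counting, cells had been infected with MRSA for 1 h and cleared of extracellular bacteria with gentamicin. They were then exposed overnight to kinase inhibitors in triplicate.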
Background: A flow cytometer gives signals particle by particle.

In data set [2] the test system is intracellular MRSA. It counts as cell-based, Staphylococcus aureus. The following applies: for z-scoreMRSA+ mean: mean of 3 replicates; for z-scoreMRSA+ rep 1 / %GFP+ rep 1: replicate 1; for z-scoreMRSA+ rep 2 / %GFP+ rep 2: replicate 2; for z-scoreMRSA+ rep 3 / %GFP+ rep 3: replicate 3. Summed up:
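HeLa cells were infected with GFP-expressing MRSA (mean MOI 6.8) for 1 h, treated with 30 µg/ml gentamicin for 15 min, then incubated overnight at 37°C with kinase inhibitors and 5 µg/ml gentamicin. Flow cytometry gave % GFP-positive cells, with cell count as viability. Hits were z-score ≤ -2 (infection) and ≥ -3 (count) versus DMSO.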

[3] abbreviates: PKIS compound screen, Yes/No call.
The mark [4] stands for this setting: PKIS compounds raw data, HeLa cell count.
Setting [5] is: PKIS compound screen, Yes/No call (effect without cell death).
Where [6] appears, read: PKIS compounds raw data, MRSA-infected HeLa cells.
Where [7] appears, read: PKIS compound screen raw data, HeLa cell count.
Where [8] appears, read: compound screen, HeLa cell count.
[9] abbreviates: PKIS compound screen raw data, MRSA-infected HeLa cells.
[10] abbreviates: Yes/No: effect without cell death.
The mark [11] stands for this setting: compound screen, MRSA-infected HeLa cells.
Setting [12] is: PKIS compound screen, HeLa cell count.
The mark [13] stands for this setting: PKIS compound screen, Yes/No call on z-scoreHeLa.
[14] abbreviates: PKIS compound screen, MRSA-infected HeLa cells.
Setting [15] is: PKIS compound screen, Yes/No call on z-scoreMRSA+.

Where two headings read alike, the source gives them in different places.

As for `c1ccc(Cc2nc3ccc(Nc4ncnc5ccccc45)cc3[nH]2)cc1` [GR269666A], the cell death entry in data set [1] (setting [3]) is given as “No”. In data set [1] (PKIS compound screen), the z-scoreHeLa mean is 0.30, the “z-scoreHeLa rep 1” value was 0.10, the “z-scoreHeLa rep 2” value is 0.40 and the “z-scoreHeLa rep 3” value is listed as 0.42. In addition, in data set [1] (setting [4]), the “cell count rep 1” value is 4886, the “cell count rep 2” value came out at 4795 and the “cell count rep 3” value is recorded as 7830. Moreover, in data set [2] (setting [3]), the effect result is given as “No”. Also, in data set [2] (setting [5]), the hit result is given as “No”. In data set [2] (PKIS compound screen), the “z-scoreMRSA+ mean” value came to 0.046, the “z-scoreMRSA+ rep 1” value came out at 0.07, the “z-scoreMRSA+ rep 2” value is listed as 0.77 and the “z-scoreMRSA+ rep 3” value is listed as -0.71. In data set [2] (setting [6]), the “%GFP+ rep 1” value came out at 13.4%, the “%GFP+ rep 2” value is on record as 15.8% and the “%GFP+ rep 3” value turned out to be 13.5%.

Turning to `O=C(Nc1n[nH]c2cc(-c3cccs3)ccc12)C1CC1` [SB-731284], in data set [1] (setting [7]), the “cell count rep 1” value was 2848, the “cell count rep 2” value was 2463 and the “cell count rep 3” value is on record as 2761. In addition, the cell death entry in data set [1] (Yes/No call from z-scoreHeLa) is “No”. Further, in data set [1] (setting [8]), the z-scoreHeLa mean was -1.36, the “z-scoreHeLa rep 1” value was -1.08, the “z-scoreHeLa rep 2” value is on record as -1.41 and the “z-scoreHeLa rep 3” value is listed as -1.57. In data set [2] (setting [9]), the “%GFP+ rep 1” value is 22.6%, the “%GFP+ rep 2” value was found to be 23.6% and the “%GFP+ rep 3” value is recorded as 20.0%. In addition, in data set [2] (Yes/No call from z-scoreMRSA+), the effect entry was “No”. The hit entry in data set [2] (setting [10]) is “No”. Also, in data set [2] (setting [11]), the “z-scoreMRSA+ mean” value was -0.35, the “z-scoreMRSA+ rep 1” value was -0.62, the “z-scoreMRSA+ rep 2” value is 0.24 and the “z-scoreMRSA+ rep 3” value is -0.66.

Consider `Fc1cccc(COc2ccc(Nc3ncnc4cc(-c5ccc[nH]5)sc34)cc2Cl)c1` [GW693881A], for which, in data set [1] (setting [4]), the “cell count rep 1” value was 5481, the “cell count rep 2” value is given as 4577 and the “cell count rep 3” value was determined as 7047. Moreover, in data set [1] (Yes/No call from z-scoreHeLa), the cell death entry is listed as “No”. Also, in data set [1] (setting [8]), the z-scoreHeLa mean worked out at 0.30, the “z-scoreHeLa rep 1” value is 0.64, the “z-scoreHeLa rep 2” value turned out to be 0.23 and the “z-scoreHeLa rep 3” value was 0.04. Besides, in data set [2] (setting [6]), the “%GFP+ rep 1” value is recorded as 15.5%, the “%GFP+ rep 2” value was determined as 14.8% and the “%GFP+ rep 3” value is 13.6%. Also, the effect result in data set [2] (Yes/No call from z-scoreMRSA+) was “No”. Besides, the hit result in data set [2] (setting [10]) was “No”. In addition, in data set [2] (setting [11]), the “z-scoreMRSA+ mean” value stood at 0.17, the “z-scoreMRSA+ rep 1” value worked out at 0.75, the “z-scoreMRSA+ rep 2” value was 0.44 and the “z-scoreMRSA+ rep 3” value is recorded as -0.68.

As for `Fc1cc(Cl)ccc1Nc1ccnc2cc(-c3ccc(CN4CCSCC4)o3)ccc12` [GW560106X], in data set [1] (setting [7]), the “cell count rep 1” value is given as 31348, the “cell count rep 2” value is reported as 29129 and the “cell count rep 3” value is 34674. Also, in data set [1] (setting [12]), the z-scoreHeLa mean is -0.095, the “z-scoreHeLa rep 1” value amounted to 1.70, the “z-scoreHeLa rep 2” value was -1.06 and the “z-scoreHeLa rep 3” value was -0.93. Also, in data set [1] (setting [13]), the cell death entry was “No”. Also, in data set [2] (setting [9]), the “%GFP+ rep 1” value was found to be 16.0%, the “%GFP+ rep 2” value is reported as 19.0% and the “%GFP+ rep 3” value is listed as 19.0%. Also, in data set [2] (setting [14]), the “z-scoreMRSA+ mean” value is recorded as -0.23, the “z-scoreMRSA+ rep 1” value is -0.59, the “z-scoreMRSA+ rep 2” value is 0.14 and the “z-scoreMRSA+ rep 3” value is on record as -0.24. The hit entry in data set [2] (setting [5]) is “No”. The effect result in data set [2] (setting [15]) is recorded as “No”.

For the compound `Cc1c(O)cccc1Nc1ccnc2ccc(C(F)(F)F)cc12` [GW466413A], in data set [1] (setting [7]), the “cell count rep 1” value turned out to be 3244, the “cell count rep 2” value stood at 2982 and the “cell count rep 3” value was found to be 4313. In addition, in data set [1] (Yes/No call from z-scoreHeLa), the cell death result is recorded as “No”. Further, in data set [1] (setting [8]), the z-scoreHeLa mean is given as -0.80, the “z-scoreHeLa rep 1” value is -0.80, the “z-scoreHeLa rep 2” value was -1.02 and the “z-scoreHeLa rep 3” value is -0.58. Also, in data set [2] (setting [9]), the “%GFP+ rep 1” value stood at 22.3%, the “%GFP+ rep 2” value came to 22.8% and the “%GFP+ rep 3” value was 19.9%. Also, the effect entry in data set [2] (Yes/No call from z-scoreMRSA+) is “No”. Besides, the hit entry in data set [2] (setting [10]) was “No”. Further, in data set [2] (setting [11]), the “z-scoreMRSA+ mean” value is on record as -0.45, the “z-scoreMRSA+ rep 1” value is -0.69, the “z-scoreMRSA+ rep 2” value stood at 0.0454 and the “z-scoreMRSA+ rep 3” value was -0.69.

As for `COc1cccc(NC(=O)NCCNc2ccnc(Nc3ccc(F)cc3)n2)c1` [GSK1379879A], in data set [1] (setting [7]), the “cell count rep 1” value was 4370, the “cell count rep 2” value was determined as 3480 and the “cell count rep 3” value stood at 4436. Besides, the cell death result in data set [1] (Yes/No call from z-scoreHeLa) was “No”. In data set [1] (setting [8]), the z-scoreHeLa mean is given as -0.38, the “z-scoreHeLa rep 1” value worked out at 0.0133, the “z-scoreHeLa rep 2” value is -0.63 and the “z-scoreHeLa rep 3” value is on record as -0.51. In data set [2] (setting [9]), the “%GFP+ rep 1” value was determined as 22.7%, the “%GFP+ rep 2” value is on record as 22.0% and the “%GFP+ rep 3” value was 21.2%. Also, the effect entry in data set [2] (Yes/No call from z-scoreMRSA+) is given as “No”. Moreover, in data set [2] (setting [10]), the hit entry is reported as “No”. In data set [2] (setting [11]), the “z-scoreMRSA+ mean” value is -0.35, the “z-scoreMRSA+ rep 1” value is on record as -0.60, the “z-scoreMRSA+ rep 2” value was -0.15 and the “z-scoreMRSA+ rep 3” value was -0.30.

In the case of `COc1cc(Nc2nccc(N3CCC(NC(=O)Nc4cccc(C(C)=O)c4)C3)n2)cc(OC)c1OC` (stereo not drawn) [GSK1379753A], in data set [1] (setting [7]), the “cell count rep 1” value was 28035, the “cell count rep 2” value is reported as 28667 and the “cell count rep 3” value is given as 17453. For the same compound, in data set [1] (setting [12]), the z-scoreHeLa mean is on record as -0.0237, the “z-scoreHeLa rep 1” value is -0.37, the “z-scoreHeLa rep 2” value was 0.58 and the “z-scoreHeLa rep 3” value was -0.29. The cell death entry in data set [1] (setting [13]) was “No”. In data set [2] (setting [9]), the “%GFP+ rep 1” value was 19.3%, the “%GFP+ rep 2” value came out at 19.5% and the “%GFP+ rep 3” value was found to be 18.4%. In data set [2] (setting [14]), the “z-scoreMRSA+ mean” value is reported as -0.20, the “z-scoreMRSA+ rep 1” value stood at 0.14, the “z-scoreMRSA+ rep 2” value came to 0.025 and the “z-scoreMRSA+ rep 3” value is on record as -0.77. Further, in data set [2] (setting [5]), the hit result is “No”. Further, the effect result in data set [2] (setting [15]) is on record as “No”.

For the compound `CCS(=O)(=O)c1ccc(OC)c(Nc2ncc(-c3cccc(-c4ccccc4F)c3)o2)c1` [GW678313X], in data set [1] (setting [7]), the “cell count rep 1” value came to 18271, the “cell count rep 2” value is reported as 31542 and the “cell count rep 3” value is listed as 48427. For the same compound, in data set [1] (setting [12]), the z-scoreHeLa mean came to 0.12, the “z-scoreHeLa rep 1” value is listed as -0.28, the “z-scoreHeLa rep 2” value is reported as -0.61 and the “z-scoreHeLa rep 3” value was 1.26. Further, the cell death result in data set [1] (setting [13]) is “No”. In data set [2] (setting [9]), the “%GFP+ rep 1” value is 14.1%, the “%GFP+ rep 2” value is given as 12.8% and the “%GFP+ rep 3” value came to 13.1%. In addition, in data set [2] (setting [14]), the “z-scoreMRSA+ mean” value is recorded as -1.65, the “z-scoreMRSA+ rep 1” value is on record as -1.19, the “z-scoreMRSA+ rep 2” value was -1.72 and the “z-scoreMRSA+ rep 3” value is -2.04. For the same compound, the hit result in data set [2] (setting [5]) was “No”. Also, the effect result in data set [2] (setting [15]) is “No”.

For `Cc1ccc(NC(=O)c2ccc(Cl)cc2)cc1-c1ccc(C(=O)Nc2ccncc2)cc1` [GSK1398467A], in data set [1] (setting [7]), the “cell count rep 1” value is 10600, the “cell count rep 2” value is listed as 12964 and the “cell count rep 3” value was determined as 20345. In addition, in data set [1] (setting [12]), the z-scoreHeLa mean is reported as -2.91, the “z-scoreHeLa rep 1” value is on record as -1.44, the “z-scoreHeLa rep 2” value is -4.07 and the “z-scoreHeLa rep 3” value is given as -3.21. Besides, in data set [1] (setting [13]), the cell death entry is on record as “No”. In data set [2] (setting [9]), the “%GFP+ rep 1” value is 17.7%, the “%GFP+ rep 2” value was 18.1% and the “%GFP+ rep 3” value is given as 16.2%. In data set [2] (setting [14]), the “z-scoreMRSA+ mean” value is listed as -0.42, the “z-scoreMRSA+ rep 1” value is -0.05, the “z-scoreMRSA+ rep 2” value was -0.13 and the “z-scoreMRSA+ rep 3” value is -1.09. The hit result in data set [2] (setting [5]) is “No”. The effect entry in data set [2] (setting [15]) is “No”.
